The source of these data is PubChem BioAssay (NCI).

SMILES strings stand for the structures.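 Grown in 96-well plates, cells were treated for 48 hours with each compound at five concentrations. Insufficient inhibition: endpoint recorded as highest concentration tested. Here, GI50 denotes the concentration required for 50% inhibition of growth. At the TGI there is no net growth.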 A value given as a limit tells only on which side of the number the result lay.

Among the test systems are CAKI-1 renal; SF-268 CNS; HCT-15 colon; SF-295 CNS; COLO 205 colon; SF-539 CNS; LOX IMVI melanoma; OVCAR-3 ovarian; OVCAR-8 ovarian; HL-60(TB) leukemia.
Experiment in all cases: NCI-60 cell line screen, 48 h

For the compound `O=C(/C=C/c1cccc(Cl)c1)c1ccccc1`, the GI50 with CAKI-1 renal is 2.73 µM; in the assay with SF-268 CNS, 11.5 µM; in the assay with HCT-15 colon, 4.22 µM; in the assay on SF-295 CNS, 3.88 µM; in the assay with COLO 205 colon it was 16.8 µM; in the assay on SF-539 CNS it was 13.6 µM. Besides, the GI50 in the assay on LOX IMVI melanoma is 3.06 µM; with OVCAR-3 ovarian, 4.09 µM; in the assay with OVCAR-8 ovarian, 3.32 µM; with HL-60(TB) leukemia, 2.96 µM. The TGI in the assay with CAKI-1 renal was determined as 11.5 µM; in the assay on SF-268 CNS, 26.2 µM; with HCT-15 colon, 22.7 µM; with SF-295 CNS, 18 µM; in the assay on COLO 205 colon, 31.7 µM; with SF-539 CNS it was 28.8 µM. For the same compound, the TGI came to 10.8 µM in the assay with LOX IMVI melanoma, 15.4 µM with OVCAR-3 ovarian, 11.4 µM with OVCAR-8 ovarian and 6.58 µM with HL-60(TB) leukemia.

Turning to `CCN(CC)CCNc1ccc2nc(C)n3c4ccc(OC)cc4c(=O)c1c23`, the TGI with CAKI-1 renal stood at 13 µM; in the assay with SF-268 CNS, 15.3 µM; with HCT-15 colon, 10.3 µM; with SF-295 CNS it was 7.82 µM; with COLO 205 colon it was 13 µM; with SF-539 CNS, 18.7 µM. For the same compound, the TGI with LOX IMVI melanoma was found to be 2.55 µM; in the assay on OVCAR-3 ovarian, 19.8 µM; with OVCAR-8 ovarian it was 9.25 µM; in the assay on HL-60(TB) leukemia it was 2.96 µM.

Regarding `COc1cccc2c1C(=O)c1c(O)c3c(c(O)c1C2=O)C[C@@](O)(C(=O)CO)C[C@@H]3OC1CC2C(OCN2CN2COC3C(C)OC(O[C@H]4C[C@](O)(C(=O)CO)Cc5c(O)c6c(c(O)c54)C(=O)c4c(OC)cccc4C6=O)CC32)C(C)O1` (some centres undefined), the GI50 is 0.000878 µM in the assay on CAKI-1 renal; 0.00258 µM in the assay on SF-268 CNS; 0.0278 µM in the assay with HCT-15 colon; 0.0024 µM in the assay with SF-295 CNS; 0.00664 µM with COLO 205 colon; 0.0112 µM with SF-539 CNS. Besides, the GI50 is 0.002 µM in the assay on LOX IMVI melanoma, 0.0142 µM in the assay on OVCAR-3 ovarian, 0.0113 µM in the assay on OVCAR-8 ovarian and 0.000329 µM with HL-60(TB) leukemia. The TGI was 0.00708 µM in the assay on CAKI-1 renal; 0.0469 µM in the assay on SF-268 CNS; > 1 µM in the assay on HCT-15 colon; 0.0259 µM with SF-295 CNS; 0.0216 µM in the assay on COLO 205 colon; 0.0638 µM in the assay with SF-539 CNS. Further, the TGI in the assay on LOX IMVI melanoma is 0.0328 µM; with OVCAR-3 ovarian, 0.0534 µM; in the assay with OVCAR-8 ovarian it was > 1 µM.

For the compound `O=[N+]([O-])C(=C1c2ccccc2-c2ccccc21)[N+](=O)[O-]`, the TGI was > 100 µM in the assay with CAKI-1 renal; 84.8 µM in the assay with SF-268 CNS; > 10 µM in the assay with HCT-15 colon; > 10 µM with SF-295 CNS; > 100 µM in the assay with COLO 205 colon; > 100 µM in the assay with SF-539 CNS. The TGI was > 100 µM with LOX IMVI melanoma, > 100 µM in the assay on OVCAR-3 ovarian, > 100 µM in the assay with OVCAR-8 ovarian and 98.9 µM in the assay with HL-60(TB) leukemia.

With `O=C(Nc1cccc2[nH]c(C(F)(F)F)nc12)c1ccc(Br)cc1F`, the GI50 in the assay on CAKI-1 renal was 2.89 µM; with SF-268 CNS it was 4.17 µM; in the assay on HCT-15 colon, 3.33 µM; in the assay on SF-295 CNS, 2.94 µM; in the assay on COLO 205 colon it was 2.63 µM; with SF-539 CNS, 3.26 µM. Further, the GI50 in the assay on LOX IMVI melanoma is 3.78 µM; with OVCAR-3 ovarian it was 3.62 µM; in the assay on OVCAR-8 ovarian, 3.14 µM; in the assay with HL-60(TB) leukemia, 3.05 µM. For the same compound, the TGI in the assay on CAKI-1 renal was 15.7 µM; in the assay with SF-268 CNS it was 21.4 µM; in the assay on HCT-15 colon, 14.1 µM; in the assay with SF-295 CNS it was 10.3 µM; in the assay with COLO 205 colon, 6.33 µM; in the assay with SF-539 CNS, 11.6 µM. Also, the TGI is 12.5 µM in the assay with LOX IMVI melanoma, 16.8 µM in the assay on OVCAR-3 ovarian, 15.6 µM in the assay with OVCAR-8 ovarian and 16 µM in the assay on HL-60(TB) leukemia.

Turning to `CN(C)Cc1c[nH]c2nc[nH]c(=O)c12`, the TGI in the assay on CAKI-1 renal is > 100 µM; in the assay on SF-268 CNS, > 100 µM; in the assay with HCT-15 colon it was > 100 µM; with SF-295 CNS, > 100 µM; with COLO 205 colon, > 100 µM; in the assay with SF-539 CNS, 48.9 µM. Further, the TGI in the assay with LOX IMVI melanoma was 40.9 µM; in the assay with OVCAR-3 ovarian, > 100 µM; in the assay with OVCAR-8 ovarian, > 100 µM; in the assay on HL-60(TB) leukemia, 42.4 µM.

With `CCCCCCCCCCCCNCCCc1ccccc1`, the GI50 with CAKI-1 renal was 1.79 µM; in the assay on SF-268 CNS, 1.87 µM; in the assay on HCT-15 colon, 1.71 µM; in the assay with SF-295 CNS, 1.93 µM; in the assay with COLO 205 colon, 1.87 µM; with SF-539 CNS, 1.89 µM. Moreover, the GI50 in the assay with LOX IMVI melanoma was 1.77 µM; in the assay on OVCAR-3 ovarian, 1.79 µM; in the assay on OVCAR-8 ovarian, 1.75 µM; in the assay with HL-60(TB) leukemia it was 1.89 µM. Further, the TGI with CAKI-1 renal amounted to 3.44 µM; in the assay on SF-268 CNS, 3.85 µM; in the assay on HCT-15 colon it was 3.33 µM; in the assay with SF-295 CNS, 3.62 µM; with COLO 205 colon, 3.43 µM; with SF-539 CNS it was 3.32 µM. The TGI with LOX IMVI melanoma amounted to 3.24 µM; in the assay on OVCAR-3 ovarian, 3.18 µM; with OVCAR-8 ovarian it was 3.39 µM; in the assay with HL-60(TB) leukemia, 3.73 µM.

In the case of `O=C(NCCc1nccs1)c1cnc2c(S)cccc2c1`, the GI50 with CAKI-1 renal is 3.22 µM; in the assay on SF-268 CNS it was 3.66 µM; in the assay with HCT-15 colon, 3.49 µM; in the assay with SF-295 CNS it was 2.8 µM; in the assay with COLO 205 colon, 1.56 µM; in the assay with SF-539 CNS, 4.17 µM. In addition, the GI50 in the assay on LOX IMVI melanoma is 2.35 µM; in the assay with OVCAR-3 ovarian, 2.47 µM; in the assay with OVCAR-8 ovarian it was 4.95 µM; with HL-60(TB) leukemia, 10.7 µM. For the same compound, the TGI in the assay on CAKI-1 renal was 37.4 µM; in the assay with SF-268 CNS, 27.1 µM; with HCT-15 colon, 88.6 µM; in the assay on SF-295 CNS, 17.1 µM; in the assay on COLO 205 colon, 3.75 µM; in the assay on SF-539 CNS it was 42.7 µM. Further, the TGI in the assay on LOX IMVI melanoma was determined as 92.8 µM; in the assay with OVCAR-3 ovarian, 9.21 µM; with OVCAR-8 ovarian, 57.4 µM; in the assay on HL-60(TB) leukemia, 70 µM.

On to `O=C1c2ccccc2-n2c1nc1ccc([N+](=O)[O-])cc1c2=O`, for which the TGI with CAKI-1 renal was 99.7 µM; with SF-268 CNS, > 100 µM; in the assay on HCT-15 colon, > 100 µM; in the assay on SF-295 CNS it was 79.7 µM; in the assay with COLO 205 colon it was > 100 µM; in the assay with SF-539 CNS, > 100 µM. In addition, the TGI with LOX IMVI melanoma stood at 51.7 µM; in the assay with OVCAR-3 ovarian it was 99.7 µM; in the assay with OVCAR-8 ovarian it was 46.6 µM; in the assay with HL-60(TB) leukemia, 43.5 µM.
